Data from PubChem BioAssay AID1963834 (Molecular Pharmacology Branch, DTP, NCI, 2024).
pIC50: −log10 of the molar value.

System: 873145-292-R-J1-PDC complex spheroid viability
Assay: Anticancer human tumor 873145-292-R-J1-PDC patient-derived renal clear cell carcinoma cell line growth inhibition [POLQ]
Settings: for pIC50: curve of first compound; for viability, T/C: stronger effect = lower value
Method in brief: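 PDC + HUVEC + MSC complex spheroids; POLQ inhibitors ± partner drugs; top conc. at/near clinical Cmax, else 10 microM (SN-38 1 microM), half-log dilutions; 37 degrees C, 5% CO2.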

[1] = second compound 0.0316 µM, first compound 0.0316 µM
[2] = second compound 0.0316 µM, first compound 0.1 µM
[3] = second compound 0.0316 µM, first compound 0.316 µM
[4] = second compound 0.0316 µM, first compound 1 µM
[5] = second compound 0.0316 µM, first compound 3.16 µM
[6] = second compound 0.0316 µM, first compound 10 µM
[7] = second compound 0.1 µM, first compound 0.0316 µM
[8] = second compound 0.1 µM, first compound 0.1 µM
[9] = second compound 0.1 µM, first compound 0.316 µM
[10] = second compound 0.1 µM, first compound 1 µM
[11] = second compound 0.1 µM, first compound 3.16 µM
[12] = second compound 0.1 µM, first compound 10 µM
[13] = second compound 0.316 µM, first compound 0.0316 µM
[14] = second compound 0.316 µM, first compound 0.1 µM
[15] = second compound 0.316 µM, first compound 0.316 µM
[16] = second compound 0.316 µM, first compound 1 µM
[17] = second compound 0.316 µM, first compound 3.16 µM
[18] = second compound 0.316 µM, first compound 10 µM
[19] = second compound 1 µM, first compound 0.0316 µM
[20] = second compound 1 µM, first compound 0.1 µM
[21] = second compound 1 µM, first compound 0.316 µM
[22] = second compound 1 µM, first compound 1 µM
[23] = second compound 1 µM, first compound 3.16 µM
[24] = second compound 1 µM, first compound 10 µM
[25] = second compound 3.16 µM, first compound 0.0316 µM
[26] = second compound 3.16 µM, first compound 0.1 µM
[27] = second compound 3.16 µM, first compound 0.316 µM
[28] = second compound 3.16 µM, first compound 1 µM
[29] = second compound 3.16 µM, first compound 3.16 µM
[30] = second compound 3.16 µM, first compound 10 µM
[31] = second compound 10 µM, first compound 0.0316 µM
[32] = second compound 10 µM, first compound 0.1 µM
[33] = second compound 10 µM, first compound 0.316 µM
[34] = second compound 10 µM, first compound 1 µM
[35] = second compound 10 µM, first compound 3.16 µM
[36] = second compound 10 µM, first compound 10 µM
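Note: spheroids exposed to compounds for 7 days before viability readout.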
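Throughout, for viability, T/C: luminescence signal used as surrogate for viable cell content; 100% = DMSO vehicle control viability.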

For `C#Cc1c(F)ccc2cc(O)cc(-c3ncc4c(N5CC6CCC(C5)N6)nc(OCC56CCCN5CC(F)C6)nc4c3F)c12` (stereo not drawn) + Cc1cccc(N(C)C(=O)C2C(O)CCN2c2nc(C)cc(C(F)(F)F)c2C#N)c1, the pIC50 (second compound 0.0316 µM) was less than 5.00, the pIC50 (second compound 0.1 µM) was less than 5.00 and the pIC50 (second compound 0.316 µM) was less than 5.00. For the same compound, the pIC50 (second compound 1 µM) was less than 5.00, the pIC50 (second compound 3.16 µM) was less than 5.00 and the pIC50 (second compound 10 µM) was less than 5.00. The viability, T/C [1] was 94.5%, the viability, T/C [2] was 112% and the viability, T/C [3] was 88%. It also gave a viability, T/C [4] of 91%, a viability, T/C [5] of 98% and a viability, T/C [6] of 88.8%. For the same compound, the viability, T/C [7] was 103%, the viability, T/C [8] was 97.4% and the viability, T/C [9] was 89.5%. The viability, T/C [10] was 89%, the viability, T/C [11] was 102% and the viability, T/C [12] was 92.1%. It also gave a viability, T/C [13] of 96%, a viability, T/C [14] of 94.6% and a viability, T/C [15] of 107%. It also gave a viability, T/C [16] of 92.1%, a viability, T/C [17] of 87.3% and a viability, T/C [18] of 90.7%. For the same compound, the viability, T/C [19] was 99.8%, the viability, T/C [20] was 89.2% and the viability, T/C [21] was 91.2%. It also gave a viability, T/C [22] of 93.7%, a viability, T/C [23] of 95.1% and a viability, T/C [24] of 88.8%. It also gave a viability, T/C [25] of 87.1%, a viability, T/C [26] of 84.5% and a viability, T/C [27] of 89.6%. It also gave a viability, T/C [28] of 95.9%, a viability, T/C [29] of 85.1% and a viability, T/C [30] of 89.6%. The viability, T/C [31] was 86.5%, the viability, T/C [32] was 95.8% and the viability, T/C [33] was 95.8%. For the same compound, the viability, T/C [34] was 94.4%, the viability, T/C [35] was 82.5% and the viability, T/C [36] was 86.9%.
For `C=CC(=O)N1CCN(c2nc(=O)n(-c3c(C)ccnc3C(C)C)c3nc(-c4c(O)cccc4F)c(F)cc23)C(C)C1` (stereo not drawn) + Cc1cccc(N(C)C(=O)C2C(O)CCN2c2nc(C)cc(C(F)(F)F)c2C#N)c1, the pIC50 (second compound 0.0316 µM) was less than 5.00, the pIC50 (second compound 0.1 µM) was less than 5.00 and the pIC50 (second compound 0.316 µM) was less than 5.00. The pIC50 (second compound 1 µM) was less than 5.00, the pIC50 (second compound 3.16 µM) was less than 5.00 and the pIC50 (second compound 10 µM) was less than 5.00. For the same compound, the viability, T/C [1] was 103%, the viability, T/C [2] was 108% and the viability, T/C [3] was 107%. It also gave a viability, T/C [4] of 120%, a viability, T/C [5] of 141% and a viability, T/C [6] of 138%. The viability, T/C [7] was 104%, the viability, T/C [8] was 110% and the viability, T/C [9] was 115%. For the same compound, the viability, T/C [10] was 133%, the viability, T/C [11] was 128% and the viability, T/C [12] was 126%. The viability, T/C [13] was 108%, the viability, T/C [14] was 111% and the viability, T/C [15] was 119%. It also gave a viability, T/C [16] of 123%, a viability, T/C [17] of 143% and a viability, T/C [18] of 125%. For the same compound, the viability, T/C [19] was 114%, the viability, T/C [20] was 100% and the viability, T/C [21] was 111%. It also gave a viability, T/C [22] of 123%, a viability, T/C [23] of 144% and a viability, T/C [24] of 117%. The viability, T/C [25] was 105%, the viability, T/C [26] was 110% and the viability, T/C [27] was 106%. For the same compound, the viability, T/C [28] was 111%, the viability, T/C [29] was 136% and the viability, T/C [30] was 124%. It also gave a viability, T/C [31] of 110%, a viability, T/C [32] of 101% and a viability, T/C [33] of 103%. For the same compound, the viability, T/C [34] was 111%, the viability, T/C [35] was 120% and the viability, T/C [36] was 128%.
`CC(C)n1c(=O)n(C)c2cnc3cc(F)c(-c4ccc(OCCCN5CCCCC5)nc4)cc3c21` + Cc1cccc(N(C)C(=O)C2C(O)CCN2c2nc(C)cc(C(F)(F)F)c2C#N)c1 showed a pIC50 (second compound 0.0316 µM) of less than 5.00, a pIC50 (second compound 0.1 µM) of less than 5.00 and a pIC50 (second compound 0.316 µM) of less than 5.00. For the same compound, the pIC50 (second compound 1 µM) was less than 5.00, the pIC50 (second compound 3.16 µM) was less than 5.00 and the pIC50 (second compound 10 µM) was less than 5.00. For the same compound, the viability, T/C [1] was 84.6%, the viability, T/C [2] was 102% and the viability, T/C [3] was 96.9%. For the same compound, the viability, T/C [4] was 100%, the viability, T/C [5] was 89.2% and the viability, T/C [6] was 78.1%. It also gave a viability, T/C [7] of 94.7%, a viability, T/C [8] of 103% and a viability, T/C [9] of 100%. For the same compound, the viability, T/C [10] was 90.4%, the viability, T/C [11] was 85.9% and the viability, T/C [12] was 76.4%. It also gave a viability, T/C [13] of 105%, a viability, T/C [14] of 99% and a viability, T/C [15] of 79.7%. For the same compound, the viability, T/C [16] was 99.8%, the viability, T/C [17] was 98.8% and the viability, T/C [18] was 73.3%. For the same compound, the viability, T/C [19] was 106%, the viability, T/C [20] was 106% and the viability, T/C [21] was 102%. The viability, T/C [22] was 91.8%, the viability, T/C [23] was 89.2% and the viability, T/C [24] was 72.4%. For the same compound, the viability, T/C [25] was 91%, the viability, T/C [26] was 91.8% and the viability, T/C [27] was 114%. For the same compound, the viability, T/C [28] was 101%, the viability, T/C [29] was 107% and the viability, T/C [30] was 69.4%. The viability, T/C [31] was 88.8%, the viability, T/C [32] was 98.6% and the viability, T/C [33] was 104%. It also gave a viability, T/C [34] of 90.2%, a viability, T/C [35] of 87.8% and a viability, T/C [36] of 66.4%.
With `CCc1cc2c(N3CCc4c(cc(Cn5ccnc5)cc4-c4cn(C)nc4C(F)(F)F)C3=O)cc(C)nc2c(OC)n1` + Cc1cccc(N(C)C(=O)C2C(O)CCN2c2nc(C)cc(C(F)(F)F)c2C#N)c1 the pIC50 (second compound 0.0316 µM) was less than 5.00, the pIC50 (second compound 0.1 µM) was less than 5.00 and the pIC50 (second compound 0.316 µM) was less than 5.00. The pIC50 (second compound 1 µM) was less than 5.00, the pIC50 (second compound 3.16 µM) was less than 5.00 and the pIC50 (second compound 10 µM) was less than 5.00. For the same compound, the viability, T/C [1] was 99.1%, the viability, T/C [2] was 99.8% and the viability, T/C [3] was 102%. The viability, T/C [4] was 77.3%, the viability, T/C [5] was 105% and the viability, T/C [6] was 83.2%. It also gave a viability, T/C [7] of 97.1%, a viability, T/C [8] of 99.8% and a viability, T/C [9] of 80.5%. For the same compound, the viability, T/C [10] was 90.5%, the viability, T/C [11] was 93.9% and the viability, T/C [12] was 89.8%. For the same compound, the viability, T/C [13] was 97.4%, the viability, T/C [14] was 102% and the viability, T/C [15] was 76.1%. For the same compound, the viability, T/C [16] was 97.5%, the viability, T/C [17] was 84.2% and the viability, T/C [18] was 87.4%. It also gave a viability, T/C [19] of 93%, a viability, T/C [20] of 86.5% and a viability, T/C [21] of 91.4%. It also gave a viability, T/C [22] of 79.4%, a viability, T/C [23] of 102% and a viability, T/C [24] of 70.2%. For the same compound, the viability, T/C [25] was 90.7%, the viability, T/C [26] was 87.4% and the viability, T/C [27] was 87.5%. The viability, T/C [28] was 96.7%, the viability, T/C [29] was 77.2% and the viability, T/C [30] was 89.6%. For the same compound, the viability, T/C [31] was 89.1%, the viability, T/C [32] was 102% and the viability, T/C [33] was 93.1%. The viability, T/C [34] was 88.5%, the viability, T/C [35] was 76.7% and the viability, T/C [36] was 81.6%.
